For assay [1], the system named is Vancomycin resistant enterococci 303 (VRE 303). The assay can be described thus: Minimum Inhibitory Concentration (MIC) determination, agar dilution. The format is cell-based. To be noted: Enterococcus, Mueller Hinton agar, 24 hrs at 35° C. As for the experimental part: (§1) Overnight grown cultures of Methicilin resistant Staphylococcus aureus 32 (MRSA 32), Methicilin resistant Staphylococcus epidermidis 118 (MRSE 118), Vancomycin resistant enterococci 303 (VRE 303) in Tryptic Soya broth were diluted in Mueller Hinton Broth to give optical density matching with MacFarland tube 0.5 standard. Cultures were further diluted 1:10 in Mueller Hinton broth. Using Denley's multipoint inoculator, 10^4 cells were deposited on Mueller Hinton agar (Difco) containing range of 2 fold dilutions of test compounds. These plates were incubated for 24 hrs at 35° C. and MIC results recorded. MIC is defined as minimum drug concentration that inhibits test organisms. For determining MIC of test compounds against Streptococcus pneumoniae 49619 (SPN 49619) and Streptococcus pyogenes 801 (SPY 801), Mueller Hinton agar containing 5% sheep blood was employed.
A general note: Agar dilution tests growth on a series of plates holding different concentrations.

For assay [2], the system named is Methicilin resistant Staphylococcus epidermidis 118 (MRSE 118). Described as above. In kind it is cell-based. To be noted: Mueller Hinton agar, 24 hrs at 35° C. Here is the method: as §1
Assay [3] concerns Methicilin resistant Staphylococcus aureus 32 (MRSA 32). The description is as above. In kind it is cell-based. To be noted: Mueller Hinton agar, 24 hrs at 35° C. As for the experimental part: as §1
The test system of assay [4] is methicillin resistant Staphylococcus aureus strain MRSA 32. Nature of the assay: Murine Assay Procedure (in vivo efficacy, MRSA 32 infection). To be noted: swiss mice infected intraperitoneally with MRSA 32, oral gavage 1 h after infection, repeat dose 3 hrs later, percentage survival on Day 7. Here is the method:
Oxazolidinone new chemical entities (NCEs) were evaluated for their in vivo efficacy in a murine infection caused by multi-drug resistant, methicillin resistant Staphylococcus aureus strain, referred to as MRSA 32, a clinical isolate obtained from a hospitalized patient. The procedure used for the murine assay is as follows:
Four weeks old swiss mice of 18-22 gm body weight were infected with MRSA 32 strain suspended in 5% Hog gastric mucin. The infecting dose of bacteria was set at 1-2×10^8 CFU/animal. The infecting dose was administered in 0.5 ml volume injected into peritonial cavity of mice. The treatment with oxazolidinone NCEs was started one hour after infection by administering 100-200 μl of the suspensions of oxazolidinone compounds in 5% Tween 80 by oral gavage. A repeat dose was similarly administered 3 hrs later. Each oxazolidinone NCE was tested at 2-3 different dosages in the range of 2.5 mg/kg to 20 mg/kg. In each dose group 6 mice were included. As an infection control group 12 mice were infected with MRSA 32 strain without giving any treatment. For compounds affording protection of MRSA infected mice, ED50 dosages were calculated on the basis of percentage survival on Day 7 after infection.

In assay [5] the test system is Streptococcus pneumoniae 49619 (SPN 49619). The assay can be described thus: Minimum Inhibitory Concentration (MIC) determination, agar with 5% sheep blood. The format is cell-based. To be noted: Mueller Hinton agar containing 5% sheep blood. As for the experimental part: as §1
For assay [6], the system named is Streptococcus pyogenes 801 (SPY 801). Described as above. The format is cell-based. To be noted: Mueller Hinton agar containing 5% sheep blood. Here is the method:
as §1

≈ marks a conversion by molar mass, not a printed value.

The MIC is the smallest concentration in the dilution series that meets the test's criterion for growth inhibition. The low end stands for greater potency, the high end for weaker potency. By ED50 is commonly meant the midpoint of the dose-response relation. A higher ED50 goes with weaker potency.

For the compound `CC(=O)NC[C@H]1CN(c2ccc(N3CCC(F)(CNC(C)=O)CC3)c(F)c2)C(=O)O1` [Example 6, (S)—N-{3-[4-(4-Fluoro-4-(N-acetylamino)-methylpiperidin-1-yl)-3-fluorophenyl]-2-oxo-oxazolidin-5-ylmethyl}-acetamide], the MIC in assay [1] was found to be 8 µg/mL (≈ 18.8 µM); in assay [2] it was 2 µg/mL (≈ 4.71 µM); in assay [3], 8 µg/mL (≈ 18.8 µM); in assay [5] it was 2 µg/mL (≈ 4.71 µM); in assay [6] it was 2 µg/mL (≈ 4.71 µM). The ED50 in assay [4] is 10 mg/kg.
As for `CC(=O)NC[C@H]1CN(c2ccc(N3CCC(F)(CNS(C)(=O)=O)CC3)c(F)c2)C(=O)O1` [Example 7, (S)—N-{3-[4-(4-Fluoro-4-methanesulfonamidomethylpiperidin-1-yl)-3-fluorophenyl]-2-oxo-oxazolidin-5-ylmethyl}-acetamide], the MIC turned out to be 2 µg/mL (≈ 4.34 µM) in assay [1]; 0.5 µg/mL (≈ 1.09 µM) in assay [2]; 1 µg/mL (≈ 2.17 µM) in assay [3]; 1 µg/mL (≈ 2.17 µM) in assay [5]; 1 µg/mL (≈ 2.17 µM) in assay [6]. This compound also had an ED50 in assay [4] of 5 mg/kg.
For the compound `CC(=O)NC[C@H]1CN(c2ccc(N3CCC(F)(CO)CC3)c(F)c2)C(=O)O1` [Example 9, (S)—N-{3-[4-(4-Fluoro-4-hydroxymethylpiperidin-1-yl)-3-fluorophenyl]-2-oxo-oxazolidin-5-ylmethyl}-acetamide], the minimum inhibitory concentration (MIC) in assay [1] is 4 µg/mL (≈ 10.4 µM); in assay [2], 0.5 µg/mL (≈ 1.3 µM); in assay [3], 2 µg/mL (≈ 5.22 µM); in assay [5] it was 2 µg/mL (≈ 5.22 µM); in assay [6] it was 2 µg/mL (≈ 5.22 µM). Also, the 50% effect level in assay [4] (ED50) was put at a dose of 5 mg/kg.
In the case of `COCC1(F)CCN(c2ccc(N3C[C@H](CNC(C)=O)OC3=O)cc2F)CC1` [Example 10, (S)—N-{3-[4-(4-Fluoro-4-methoxymethylpiperidin-1-yl)-3-fluorophenyl]-2-oxo-oxazolidin-5-ylmethyl}-acetamide], the MIC in assay [1] came to 1 µg/mL (≈ 2.52 µM); in assay [2], 1 µg/mL (≈ 2.52 µM); in assay [3], 2 µg/mL (≈ 5.03 µM); in assay [5], 2 µg/mL (≈ 5.03 µM); in assay [6] it was 2 µg/mL (≈ 5.03 µM). Besides, the ED50 in assay [4] came to 5 mg/kg.
As to `CCOCC1(F)CCN(c2ccc(N3C[C@H](CNC(C)=O)OC3=O)cc2F)CC1` [Example 11, (S)—N-{3-[4-(4-Fluoro-4-ethoxymethylpiperidin-1-yl)-3-fluorophenyl]-2-oxo-oxazolidin-5-ylmethyl}-acetamide], the MIC in assay [1] was 4 µg/mL (≈ 9.72 µM); in assay [2], 0.5 µg/mL (≈ 1.22 µM); in assay [3], 1 µg/mL (≈ 2.43 µM); in assay [5] it was 2 µg/mL (≈ 4.86 µM); in assay [6], 4 µg/mL (≈ 9.72 µM). The same compound yielded an ED50 in assay [4] of 10 mg/kg.
As to `CC(=O)NC[C@H]1CN(c2ccc(N3CCC(F)(COS(C)(=O)=O)CC3)c(F)c2)C(=O)O1` [Example 12, (S)—N-{3-[4-(4-Fluoro-4-methanesulfonyloxymethylpiperidin-1-yl)-3-fluorophenyl]-2-oxo-oxazolidin-5-ylmethyl}-acetamide], the MIC in assay [1] was 2 µg/mL (≈ 4.33 µM); in assay [2] it was 0.5 µg/mL (≈ 1.08 µM); in assay [3], 1 µg/mL (≈ 2.17 µM); in assay [5] it was 0.25 µg/mL (≈ 0.542 µM); in assay [6], 0.25 µg/mL (≈ 0.542 µM). The 50% effect level in assay [4] (ED50) was put at a dose of 2.5 mg/kg.
Consider `CC(=O)NC[C@H]1CN(c2ccc(N3CCC(F)(CI)CC3)c(F)c2)C(=O)O1` [Example 15, (S)—N-{3-[4-(4-Fluoro-4-iodomethylpiperidin-1-yl)-3-fluorophenyl]-2-oxo-oxazolidin-5-ylmethyl}-acetamide], for which the MIC in assay [1] came to 2 µg/mL (≈ 4.05 µM); in assay [2], 1 µg/mL (≈ 2.03 µM); in assay [3], 1 µg/mL (≈ 2.03 µM); in assay [5] it was 1 µg/mL (≈ 2.03 µM); in assay [6], 1 µg/mL (≈ 2.03 µM). Also, in assay [4], it took a dose of 10 mg/kg to reach the 50% effect level (ED50).
Take `CC(=O)NC[C@H]1CN(c2ccc(N3CCC(F)(F)CC3)c(F)c2)C(=O)O1` [Example 16, (S)—N-{3-[4-(4,4-Difluoropiperidin-1-yl)-3-fluorophenyl]-2-oxo-oxazolidin-5-ylmethyl}-acetamide]: the MIC in assay [1] stood at 2 µg/mL (≈ 5.39 µM); in assay [2] it was 1 µg/mL (≈ 2.69 µM); in assay [3], 2 µg/mL (≈ 5.39 µM); in assay [5], 2 µg/mL (≈ 5.39 µM); in assay [6], 2 µg/mL (≈ 5.39 µM). In addition, it took a dose of 5 mg/kg to reach the 50% effect level in assay [4] (ED50).
As for `CC(=O)NC[C@H]1CN(c2ccc(N3CCC(C)(O)CC3)c(F)c2)C(=O)O1` [Example 17, (S)—N-{3-[4-(4-Methyl-4-hydroxypiperidin-1-yl)-3-fluorophenyl]-2-oxo-oxazolidin-5-ylmethyl}-acetamide], the MIC was greater than 32 µg/mL in assay [1]; greater than 32 µg/mL in assay [2]; 8 µg/mL (≈ 21.9 µM) in assay [3]; greater than 16 µg/mL in assay [5]; greater than 16 µg/mL in assay [6]. Besides, in assay [4], the ED50 stood at 10 mg/kg.
Turning to `CC(=O)NC[C@H]1CN(c2ccc(N3CCC(O)(C#N)CC3)c(F)c2)C(=O)O1` [Example 19, (S)—N-{3-[4-(4-Cyano-4-hydroxypiperidin-1-yl)-3-fluorophenyl]-2-oxo-oxazolidin-5-ylmethyl}-acetamide], the MIC in assay [1] stood at 4 µg/mL (≈ 10.6 µM); in assay [2] it was 0.5 µg/mL (≈ 1.33 µM); in assay [3], 4 µg/mL (≈ 10.6 µM); in assay [5], 4 µg/mL (≈ 10.6 µM); in assay [6], 8 µg/mL (≈ 21.3 µM). Also, it took a dose of 5 mg/kg to reach the 50% effect level in assay [4] (ED50).
As for `CC(=O)NC[C@H]1CN(c2ccc(N3CCC(O)(CC#N)CC3)c(F)c2)C(=O)O1` [Example 21, (S)—N-{3-[4-(4-Cyanomethyl-4-hydroxypiperidin-1-yl)-3-fluorophenyl]-2-oxo-oxazolidin-5-ylmethyl}-acetamide], the MIC in assay [1] is 4 µg/mL (≈ 10.2 µM); in assay [2], 1 µg/mL (≈ 2.56 µM); in assay [3], 4 µg/mL (≈ 10.2 µM); in assay [5] it was 1 µg/mL (≈ 2.56 µM); in assay [6], 1 µg/mL (≈ 2.56 µM). In assay [4], this compound gave an ED50 of 2.5 mg/kg.
As to `CC(=O)NC[C@H]1CN(c2ccc(N3CCC(O)(CN=[N+]=[N-])CC3)c(F)c2)C(=O)O1` [Example 25, (S)—N-{3-[4-(4-Azidomethyl-4-hydroxypiperidin-1-yl)-3-fluorophenyl]-2-oxo-oxazolidin-5-ylmethyl}-acetamide], the MIC in assay [1] is 2 µg/mL (≈ 4.92 µM); in assay [2], 1 µg/mL (≈ 2.46 µM); in assay [3], 4 µg/mL (≈ 9.84 µM); in assay [5], 2 µg/mL (≈ 4.92 µM); in assay [6], 2 µg/mL (≈ 4.92 µM). The compound further yielded a median effective dose (ED50) in assay [4] of 5 mg/kg.
Consider `COCC1(O)CCN(c2ccc(N3C[C@H](CNC(C)=O)OC3=O)cc2F)CC1` [Example 33, (S)—N-{3-[4-(4-Methoxymethyl-4-hydroxypiperidin-1-yl)-3-fluorophenyl]-2-oxo-oxazolidin-5-ylmethyl}-acetamide], for which the MIC worked out at 4 µg/mL (≈ 10.1 µM) in assay [1]; 4 µg/mL (≈ 10.1 µM) in assay [2]; 8 µg/mL (≈ 20.2 µM) in assay [3]; 2 µg/mL (≈ 5.06 µM) in assay [5]; 2 µg/mL (≈ 5.06 µM) in assay [6]. Also, the ED50 in assay [4] came to 10 mg/kg.
`C=CCC1(O)CCN(c2ccc(N3C[C@H](COS(C)(=O)=O)OC3=O)cc2F)CC1` [Example 41]: the MIC worked out at 8 µg/mL (≈ 18.7 µM) in assay [1]; 8 µg/mL (≈ 18.7 µM) in assay [2]; 8 µg/mL (≈ 18.7 µM) in assay [3]; 16 µg/mL (≈ 37.3 µM) in assay [5]; 16 µg/mL (≈ 37.3 µM) in assay [6]. This compound also registered an ED50 in assay [4] of 10 mg/kg.
On to `CC(=S)NC[C@H]1CN(c2ccc(N3CCC(C#N)(Nc4ccc(C#N)cc4)CC3)c(F)c2)C(=O)O1` [Example 87, (S)—N-{3-[4-(4-(1-(4-Cyanophenylamino))-4-cyanopiperidin-1-yl)-3-fluorophenyl]-2-oxo-oxazolidin-5-ylmethyl}-thioacetamide], for which the MIC stood at 0.4 µg/mL (≈ 0.812 µM) in assay [1]; 0.5 µg/mL (≈ 1.02 µM) in assay [2]; 1 µg/mL (≈ 2.03 µM) in assay [3]; 0.8 µg/mL (≈ 1.62 µM) in assay [5]; 0.8 µg/mL (≈ 1.62 µM) in assay [6]. This compound also displayed an ED50 in assay [4] of 10 mg/kg.
